This is an account of results in ChEMBL document CHEMBL1133493, “N-acylated alpha-(3-pyridylmethyl)-beta-aminotetralin antagoinists of the human neuropeptide Y Y5 receptor” (Bioorg Med Chem Lett, 2000).

The first experiment concerns the target T1, Neuropeptide Y receptor type 5 (Homo sapiens, UniProt Q15761).
T1 sequence (Q15761 whole entry): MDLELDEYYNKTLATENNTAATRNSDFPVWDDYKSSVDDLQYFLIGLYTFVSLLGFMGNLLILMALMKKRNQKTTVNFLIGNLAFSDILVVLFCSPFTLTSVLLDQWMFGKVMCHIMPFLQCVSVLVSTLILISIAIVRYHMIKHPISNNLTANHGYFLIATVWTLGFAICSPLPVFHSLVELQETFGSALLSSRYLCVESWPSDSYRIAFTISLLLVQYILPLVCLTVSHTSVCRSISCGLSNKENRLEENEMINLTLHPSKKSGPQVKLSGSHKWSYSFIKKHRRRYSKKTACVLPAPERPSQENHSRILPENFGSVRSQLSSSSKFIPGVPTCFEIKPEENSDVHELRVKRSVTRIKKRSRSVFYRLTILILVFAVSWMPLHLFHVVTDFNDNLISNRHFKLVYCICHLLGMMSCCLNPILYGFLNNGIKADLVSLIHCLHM
Briefly: Inhibition of binding of radioligand [125I]PYY to the human Neuropeptide Y receptor type 5, using a stably transfected HEK293 cell line. The class given is cell-based.
For orientation: IC50 means the concentration that gives 50% inhibition. `COc1ccc2c(c1)CCC(NC(=O)CN1CCC(n3c(=O)[nH]c4ccccc43)CC1)C2Cc1cccnc1` (stereo unspecified) showed an IC50 of 75 nM.

Turning to `O=C(CN1CCC(n2c(O)nc3ccccc32)CC1)NC1CCc2cc(O)ccc2C1Cc1cccnc1` (stereo unspecified), the IC50 was determined as 6 nM.

Regarding `CC(C)(C)NC(=O)NC1CCN(CC(=O)NC2CCc3cc(F)ccc3C2Cc2cccnc2)CC1` (stereo unspecified), the 50% inhibitory concentration (IC50) turned out to be 140 nM.

In the case of `O=C(CN1CCC(n2c(=O)[nH]c3ccccc32)CC1)NC1CCc2ccccc2C1Cc1cccnc1` (stereo unspecified), the concentration for half-maximal inhibition (IC50) came to 22 nM.

Compound `CC(C)(C)OC(=O)NC[C@H]1CC[C@H](C(=O)NC2CCc3cc(F)ccc3C2Cc2cccnc2)CC1` (stereo partly specified) had an IC50 of 16 nM.

`O=C(NC[C@H]1CC[C@H](C(=O)NC2CCc3cc(F)ccc3C2Cc2cccnc2)CC1)Nc1ccccc1` (stereo partly specified) registered a concentration for half-maximal inhibition (IC50) of 170 nM.

The compound `CC(C)(C)OC(=O)N[C@@H]1CCN(CC(=O)NC2CCc3cc(F)ccc3C2Cc2cccnc2)C1` (stereo partly specified) showed an IC50 of 30 nM.

As for `O=C(CN1CCC(n2c(O)nc3ccccc32)CC1)NC1CCc2cc(F)ccc2C1Cc1cccnc1` (stereo unspecified), the half-maximal inhibitory concentration (IC50) amounted to 25 nM.

In turn, `O=C(CN1CCC(NC(=O)Nc2ccccc2)CC1)NC1CCc2cc(F)ccc2C1Cc1cccnc1` (stereo unspecified) yielded an IC50 of 236 nM.

The compound `CC(C)(C)OC(=O)N[C@H]1CCN(CC(=O)NC2CCc3cc(F)ccc3C2Cc2cccnc2)C1` (stereo partly specified) gave an IC50 of 17 nM.

`O=C(Cc1ccccc1)NC1CCN(CC(=O)NC2CCc3cc(F)ccc3C2Cc2cccnc2)CC1` (stereo unspecified): the IC50 turned out to be 36 nM.

Take `O=C(CN1CCC(NC(=O)c2ccccc2)CC1)NC1CCc2cc(F)ccc2C1Cc1cccnc1` (stereo unspecified): the concentration for half-maximal inhibition (IC50) was 28 nM.

As to `O=C(NC[C@H]1CC[C@H](C(=O)NC2CCc3cc(F)ccc3C2Cc2cccnc2)CC1)Oc1ccccc1` (stereo partly specified), the IC50 was 31 nM.

As for `O=C(Cc1ccccc1)NC[C@H]1CC[C@H](C(=O)NC2CCc3cc(F)ccc3C2Cc2cccnc2)CC1` (stereo partly specified), the IC50 was found to be 114 nM.

For `O=C(CN1CCC(NC(=O)Oc2ccccc2)CC1)NC1CCc2cc(F)ccc2C1Cc1cccnc1` (stereo unspecified), the IC50 turned out to be 52 nM.

Regarding `CC(C)(C)OC(=O)NC1CCN(CC(=O)NC2CCc3cc(F)ccc3C2Cc2cccnc2)C1` (stereo unspecified), the IC50 was 45 nM.

The compound `O=C(CN1CC[C@H](NC(=O)c2ccccc2)C1)NC1CCc2cc(F)ccc2C1Cc1cccnc1` (stereo partly specified) yielded a concentration for half-maximal inhibition (IC50) of 26 nM.

The compound `O=C(NC[C@H]1CC[C@H](C(=O)NC2CCc3cc(F)ccc3C2Cc2cccnc2)CC1)c1ccccc1` (stereo partly specified) returned a 50% inhibitory concentration (IC50) of 39 nM.

`CC(C)(C)OC(=O)NC1CCN(CC(=O)NC2CCc3cc(F)ccc3C2Cc2cccnc2)CC1` (stereo unspecified) showed a half-maximal inhibitory concentration (IC50) of 37 nM.

The next experiment deals with T2, Neuropeptide Y receptor type 5 (Homo sapiens) (UniProt Q15761).
T2 sequence (whole entry): T1 sequence (Q15761 whole entry)
Briefly: Antagonist potency by inhibition of peptide YY (PYY)-induced incorporation of [35S]GTP-gamma-S into membranes prepared from NPY5 receptor expressing cells, in the presence of 300 nM PYY. The class given is functional.
Broadly, the Kb is the affinity of an antagonist, worked out from how it opposes an agonist. In the case of `O=C(CN1CCC(n2c(O)nc3ccccc32)CC1)NC1CCc2cc(O)ccc2C1Cc1cccnc1` (stereo unspecified), the Kb was 21 nM.

For `O=C(CN1CCC(n2c(O)nc3ccccc32)CC1)NC1CCc2cc(F)ccc2C1Cc1cccnc1` (stereo unspecified), the antagonist equilibrium constant (Kb) was found to be 21 nM.
